Laboratory results reported in patent US11795199B2, “Peptide targeting Mycobacterium tuberculosis toxin-antitoxin system and use thereof” (Seoul National University R&DB Foundation, priority 2017, dated 2023).

Key:
[1] = target: T1, VapBC26 protein complex containing Y51E (Mycobacterium tuberculosis, UniProt O53778, Y51E)
[2] = target: T1, VapBC26 protein complex containing Y51E; remark: listed apart in the source

For “DAELAVLRELAG [mimetic peptide for VapC26 α4]”, the “fluorescence increase in Y51E” value [1] was 15.07% and the “calculated area corresponding to VapC26, larger than with the native protein complex” value [2] was 15.42%.
